# According to ChEMBL document CHEMBL1139593, “Synthesis and biological evaluation of chromone carboxamides as calpain inhibitors” (Bioorg Med Chem Lett, 2005):
# Square brackets hold non-standard residues; d marks the D form. Peptide text beside a SMILES is read from it. * marks the point of attachment. ξ: configuration not given here. ξF = NC(Cc1ccccc1)C(=O)O; Cbz = O=C(OCc1ccccc1)*
# Molecular target: T1, Calpain-1 catalytic subunit (Homo sapiens, UniProt P07384)
# T1 sequence (P07384 whole entry): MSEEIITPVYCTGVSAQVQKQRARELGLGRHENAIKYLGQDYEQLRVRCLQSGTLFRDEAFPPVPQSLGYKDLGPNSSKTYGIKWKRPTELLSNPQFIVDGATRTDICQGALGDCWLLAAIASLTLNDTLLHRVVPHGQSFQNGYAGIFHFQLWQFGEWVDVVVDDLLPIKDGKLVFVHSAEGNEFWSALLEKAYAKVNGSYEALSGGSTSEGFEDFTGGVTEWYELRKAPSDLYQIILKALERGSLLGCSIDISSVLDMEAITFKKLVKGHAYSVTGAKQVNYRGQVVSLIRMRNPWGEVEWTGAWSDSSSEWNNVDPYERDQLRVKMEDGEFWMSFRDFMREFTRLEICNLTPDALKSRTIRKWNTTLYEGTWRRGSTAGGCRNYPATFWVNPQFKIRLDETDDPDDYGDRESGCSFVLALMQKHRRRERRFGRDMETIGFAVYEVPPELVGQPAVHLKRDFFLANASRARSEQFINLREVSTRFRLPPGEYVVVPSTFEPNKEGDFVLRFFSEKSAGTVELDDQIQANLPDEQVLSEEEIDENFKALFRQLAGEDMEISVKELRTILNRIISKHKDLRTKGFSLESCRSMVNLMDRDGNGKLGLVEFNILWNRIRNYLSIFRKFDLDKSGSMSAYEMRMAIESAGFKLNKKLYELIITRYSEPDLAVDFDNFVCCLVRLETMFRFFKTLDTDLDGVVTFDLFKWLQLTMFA
# Assay: Inhibitory concentration against human plasma mu-calpain
# Type: cell-free
row,SMILES,IC50 [nM]
1,Cc1c(C(=O)N[C@@H](Cc2ccccc2)C(=O)C(=O)NCCN2CCOCC2)oc2ccccc2c1=O,8170
2,Cc1c(C(=O)N[C@@H](Cc2ccccc2)C(=O)C(N)=O)oc2ccccc2c1=O,240
3,Cc1c(C(=O)N[C@@H](Cc2ccccc2)C(=O)C(=O)NCc2ccccc2)oc2cc3c(cc2c1=O)OCCO3,2480
4,NC(=O)C(=O)[C@H](Cc1ccccc1)NC(=O)c1cc(=O)c2ccccc2o1,8730
5,Cc1c(C(=O)N[C@@H](Cc2ccccc2)C(=O)C(=O)NC(C)C)oc2ccccc2c1=O,5690
6,Cc1c(C(=O)N[C@@H](Cc2ccccc2)C(=O)C(=O)NCCc2ccccc2)oc2cc3c(cc2c1=O)OCCO3,4530
7,Cc1c(C(=O)N[C@@H](Cc2ccccc2)C(=O)C(=O)NCCc2ccccc2)oc2ccccc2c1=O,530
8,Cc1c(C(=O)N[C@@H](Cc2ccccc2)C(=O)C(=O)NCc2ccccc2)oc2ccccc2c1=O,720
9,Cc1c(C(=O)N[C@@H](Cc2ccccc2)C(=O)C(=O)NCCN2CCOCC2)oc2cc3c(cc2c1=O)OCCO3,> 20000
10,CCc1c(C(=O)N[C@@H](Cc2ccccc2)C(=O)C(N)=O)oc2ccccc2c1=O,450
11,Cc1c(C(=O)N[C@@H](Cc2ccccc2)C(=O)C(N)=O)oc2cc3c(cc2c1=O)OCCO3,810
12,Cc1c(C(=O)N[C@@H](Cc2ccccc2)C(=O)C(=O)NC(C)C)oc2cc3c(cc2c1=O)OCCO3,> 20000

# Molecular target: Cathepsin B (Bos taurus) (UniProt P07688)
# Assay: Percent inhibition of bovine cathepsin B at 2 uM
row,SMILES,inhibition [%]
1,Cc1c(C(=O)N[C@@H](Cc2ccccc2)C(=O)C(=O)NCCN2CCOCC2)oc2ccccc2c1=O,0
2,CC(C)[C@H](NC(=O)OCc1ccccc1)C(=O)NC(C=O)Cc1ccccc1 (stereo partly drawn) (Cbz-Val-[ξF]-aldehyde),96.6
3,Cc1c(C(=O)N[C@@H](Cc2ccccc2)C(=O)C(N)=O)oc2ccccc2c1=O,63.2
4,Cc1c(C(=O)N[C@@H](Cc2ccccc2)C(=O)C(=O)NCc2ccccc2)oc2cc3c(cc2c1=O)OCCO3,18.6
5,NC(=O)C(=O)[C@H](Cc1ccccc1)NC(=O)c1cc(=O)c2ccccc2o1,55.4
6,Cc1c(C(=O)N[C@@H](Cc2ccccc2)C(=O)C(=O)NC(C)C)oc2ccccc2c1=O,0
7,Cc1c(C(=O)N[C@@H](Cc2ccccc2)C(=O)C(=O)NCCc2ccccc2)oc2cc3c(cc2c1=O)OCCO3,35.3
8,Cc1c(C(=O)N[C@@H](Cc2ccccc2)C(=O)C(=O)NCCc2ccccc2)oc2ccccc2c1=O,49
9,Cc1c(C(=O)N[C@@H](Cc2ccccc2)C(=O)C(=O)NCc2ccccc2)oc2ccccc2c1=O,21.3
10,Cc1c(C(=O)N[C@@H](Cc2ccccc2)C(=O)C(=O)NCCN2CCOCC2)oc2cc3c(cc2c1=O)OCCO3,0
11,CCc1c(C(=O)N[C@@H](Cc2ccccc2)C(=O)C(N)=O)oc2ccccc2c1=O,61.2
12,Cc1c(C(=O)N[C@@H](Cc2ccccc2)C(=O)C(N)=O)oc2cc3c(cc2c1=O)OCCO3,60.8
13,Cc1c(C(=O)N[C@@H](Cc2ccccc2)C(=O)C(=O)NC(C)C)oc2cc3c(cc2c1=O)OCCO3,0

# Molecular target: Cathepsin B (Bos taurus) (UniProt P07688)
# Assay: Percent inhibition of bovine cathepsin B at 20 uM
row,SMILES,inhibition [%]
1,Cc1c(C(=O)N[C@@H](Cc2ccccc2)C(=O)C(=O)NCCN2CCOCC2)oc2ccccc2c1=O,23.9
2,CC(C)[C@H](NC(=O)OCc1ccccc1)C(=O)NC(C=O)Cc1ccccc1 (stereo partly drawn) (Cbz-Val-[ξF]-aldehyde),100
3,Cc1c(C(=O)N[C@@H](Cc2ccccc2)C(=O)C(N)=O)oc2ccccc2c1=O,91.5
4,Cc1c(C(=O)N[C@@H](Cc2ccccc2)C(=O)C(=O)NCc2ccccc2)oc2cc3c(cc2c1=O)OCCO3,58.2
5,NC(=O)C(=O)[C@H](Cc1ccccc1)NC(=O)c1cc(=O)c2ccccc2o1,79.9
6,Cc1c(C(=O)N[C@@H](Cc2ccccc2)C(=O)C(=O)NC(C)C)oc2ccccc2c1=O,42.6
7,Cc1c(C(=O)N[C@@H](Cc2ccccc2)C(=O)C(=O)NCCc2ccccc2)oc2cc3c(cc2c1=O)OCCO3,41.4
8,Cc1c(C(=O)N[C@@H](Cc2ccccc2)C(=O)C(=O)NCCc2ccccc2)oc2ccccc2c1=O,82.1
9,Cc1c(C(=O)N[C@@H](Cc2ccccc2)C(=O)C(=O)NCc2ccccc2)oc2ccccc2c1=O,67.9
10,Cc1c(C(=O)N[C@@H](Cc2ccccc2)C(=O)C(=O)NCCN2CCOCC2)oc2cc3c(cc2c1=O)OCCO3,20.2
11,CCc1c(C(=O)N[C@@H](Cc2ccccc2)C(=O)C(N)=O)oc2ccccc2c1=O,91.5
12,Cc1c(C(=O)N[C@@H](Cc2ccccc2)C(=O)C(N)=O)oc2cc3c(cc2c1=O)OCCO3,92.2
13,Cc1c(C(=O)N[C@@H](Cc2ccccc2)C(=O)C(=O)NC(C)C)oc2cc3c(cc2c1=O)OCCO3,42.2

# Molecular target: Cathepsin B (Bos taurus) (UniProt P07688)
# Assay: Percent inhibition of bovine cathepsin B at 0.2 uM
row,SMILES,inhibition [%]
1,Cc1c(C(=O)N[C@@H](Cc2ccccc2)C(=O)C(=O)NCCN2CCOCC2)oc2ccccc2c1=O,0
2,CC(C)[C@H](NC(=O)OCc1ccccc1)C(=O)NC(C=O)Cc1ccccc1 (stereo partly drawn) (Cbz-Val-[ξF]-aldehyde),96
3,Cc1c(C(=O)N[C@@H](Cc2ccccc2)C(=O)C(N)=O)oc2ccccc2c1=O,14.4
4,Cc1c(C(=O)N[C@@H](Cc2ccccc2)C(=O)C(=O)NCc2ccccc2)oc2cc3c(cc2c1=O)OCCO3,0
5,NC(=O)C(=O)[C@H](Cc1ccccc1)NC(=O)c1cc(=O)c2ccccc2o1,21.5
6,Cc1c(C(=O)N[C@@H](Cc2ccccc2)C(=O)C(=O)NC(C)C)oc2ccccc2c1=O,0
7,Cc1c(C(=O)N[C@@H](Cc2ccccc2)C(=O)C(=O)NCCc2ccccc2)oc2cc3c(cc2c1=O)OCCO3,0
8,Cc1c(C(=O)N[C@@H](Cc2ccccc2)C(=O)C(=O)NCCc2ccccc2)oc2ccccc2c1=O,0
9,Cc1c(C(=O)N[C@@H](Cc2ccccc2)C(=O)C(=O)NCc2ccccc2)oc2ccccc2c1=O,0
10,Cc1c(C(=O)N[C@@H](Cc2ccccc2)C(=O)C(=O)NCCN2CCOCC2)oc2cc3c(cc2c1=O)OCCO3,0
11,CCc1c(C(=O)N[C@@H](Cc2ccccc2)C(=O)C(N)=O)oc2ccccc2c1=O,16.9
12,Cc1c(C(=O)N[C@@H](Cc2ccccc2)C(=O)C(N)=O)oc2cc3c(cc2c1=O)OCCO3,26.3
13,Cc1c(C(=O)N[C@@H](Cc2ccccc2)C(=O)C(=O)NC(C)C)oc2cc3c(cc2c1=O)OCCO3,0

# Molecular target: Procathepsin L (Homo sapiens) (UniProt P07711)
# Assay: Percent inhibition of human liver cathepsin L at 2 uM
# Chain of Procathepsin L (Homo sapiens) (P07711 114-333 limits assumed): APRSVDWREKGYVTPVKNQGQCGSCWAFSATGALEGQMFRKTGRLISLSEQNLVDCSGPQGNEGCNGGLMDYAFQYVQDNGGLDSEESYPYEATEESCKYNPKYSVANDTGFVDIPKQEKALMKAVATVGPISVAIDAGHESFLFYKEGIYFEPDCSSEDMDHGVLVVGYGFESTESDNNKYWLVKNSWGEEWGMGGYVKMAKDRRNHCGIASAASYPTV
row,SMILES,inhibition [%]
1,Cc1c(C(=O)N[C@@H](Cc2ccccc2)C(=O)C(=O)NCCN2CCOCC2)oc2ccccc2c1=O,9.6
2,CC(C)[C@H](NC(=O)OCc1ccccc1)C(=O)NC(C=O)Cc1ccccc1 (stereo partly drawn) (Cbz-Val-[ξF]-aldehyde),100
3,Cc1c(C(=O)N[C@@H](Cc2ccccc2)C(=O)C(N)=O)oc2ccccc2c1=O,81.5
4,Cc1c(C(=O)N[C@@H](Cc2ccccc2)C(=O)C(=O)NCc2ccccc2)oc2cc3c(cc2c1=O)OCCO3,83.8
5,NC(=O)C(=O)[C@H](Cc1ccccc1)NC(=O)c1cc(=O)c2ccccc2o1,87.7
6,Cc1c(C(=O)N[C@@H](Cc2ccccc2)C(=O)C(=O)NC(C)C)oc2ccccc2c1=O,17.5
7,Cc1c(C(=O)N[C@@H](Cc2ccccc2)C(=O)C(=O)NCCc2ccccc2)oc2cc3c(cc2c1=O)OCCO3,66.8
8,Cc1c(C(=O)N[C@@H](Cc2ccccc2)C(=O)C(=O)NCCc2ccccc2)oc2ccccc2c1=O,78.9
9,Cc1c(C(=O)N[C@@H](Cc2ccccc2)C(=O)C(=O)NCc2ccccc2)oc2ccccc2c1=O,65.3
10,Cc1c(C(=O)N[C@@H](Cc2ccccc2)C(=O)C(=O)NCCN2CCOCC2)oc2cc3c(cc2c1=O)OCCO3,26.5
11,CCc1c(C(=O)N[C@@H](Cc2ccccc2)C(=O)C(N)=O)oc2ccccc2c1=O,89.2
12,Cc1c(C(=O)N[C@@H](Cc2ccccc2)C(=O)C(N)=O)oc2cc3c(cc2c1=O)OCCO3,86.3
13,Cc1c(C(=O)N[C@@H](Cc2ccccc2)C(=O)C(=O)NC(C)C)oc2cc3c(cc2c1=O)OCCO3,24.6

# Molecular target: Procathepsin L (Homo sapiens) (UniProt P07711)
# Assay: Percent inhibition of human liver cathepsin L at 20 uM
row,SMILES,inhibition [%]
1,Cc1c(C(=O)N[C@@H](Cc2ccccc2)C(=O)C(=O)NCCN2CCOCC2)oc2ccccc2c1=O,69.6
2,CC(C)[C@H](NC(=O)OCc1ccccc1)C(=O)NC(C=O)Cc1ccccc1 (stereo partly drawn) (Cbz-Val-[ξF]-aldehyde),100
3,Cc1c(C(=O)N[C@@H](Cc2ccccc2)C(=O)C(N)=O)oc2ccccc2c1=O,98.1
4,Cc1c(C(=O)N[C@@H](Cc2ccccc2)C(=O)C(=O)NCc2ccccc2)oc2cc3c(cc2c1=O)OCCO3,95.8
5,NC(=O)C(=O)[C@H](Cc1ccccc1)NC(=O)c1cc(=O)c2ccccc2o1,99.1
6,Cc1c(C(=O)N[C@@H](Cc2ccccc2)C(=O)C(=O)NC(C)C)oc2ccccc2c1=O,71.2
7,Cc1c(C(=O)N[C@@H](Cc2ccccc2)C(=O)C(=O)NCCc2ccccc2)oc2cc3c(cc2c1=O)OCCO3,95.7
8,Cc1c(C(=O)N[C@@H](Cc2ccccc2)C(=O)C(=O)NCCc2ccccc2)oc2ccccc2c1=O,98.3
9,Cc1c(C(=O)N[C@@H](Cc2ccccc2)C(=O)C(=O)NCc2ccccc2)oc2ccccc2c1=O,95.6
10,Cc1c(C(=O)N[C@@H](Cc2ccccc2)C(=O)C(=O)NCCN2CCOCC2)oc2cc3c(cc2c1=O)OCCO3,92
11,CCc1c(C(=O)N[C@@H](Cc2ccccc2)C(=O)C(N)=O)oc2ccccc2c1=O,96.6
12,Cc1c(C(=O)N[C@@H](Cc2ccccc2)C(=O)C(N)=O)oc2cc3c(cc2c1=O)OCCO3,96.6
13,Cc1c(C(=O)N[C@@H](Cc2ccccc2)C(=O)C(=O)NC(C)C)oc2cc3c(cc2c1=O)OCCO3,74.9

# Molecular target: Procathepsin L (Homo sapiens) (UniProt P07711)
# Assay: Percent inhibition of human liver cathepsin L at 0.2 uM
row,SMILES,inhibition [%]
1,Cc1c(C(=O)N[C@@H](Cc2ccccc2)C(=O)C(=O)NCCN2CCOCC2)oc2ccccc2c1=O,0
2,CC(C)[C@H](NC(=O)OCc1ccccc1)C(=O)NC(C=O)Cc1ccccc1 (stereo partly drawn) (Cbz-Val-[ξF]-aldehyde),100
3,Cc1c(C(=O)N[C@@H](Cc2ccccc2)C(=O)C(N)=O)oc2ccccc2c1=O,22.4
4,Cc1c(C(=O)N[C@@H](Cc2ccccc2)C(=O)C(=O)NCc2ccccc2)oc2cc3c(cc2c1=O)OCCO3,12.7
5,NC(=O)C(=O)[C@H](Cc1ccccc1)NC(=O)c1cc(=O)c2ccccc2o1,54.2
6,Cc1c(C(=O)N[C@@H](Cc2ccccc2)C(=O)C(=O)NC(C)C)oc2ccccc2c1=O,2.1
7,Cc1c(C(=O)N[C@@H](Cc2ccccc2)C(=O)C(=O)NCCc2ccccc2)oc2cc3c(cc2c1=O)OCCO3,7.4
8,Cc1c(C(=O)N[C@@H](Cc2ccccc2)C(=O)C(=O)NCCc2ccccc2)oc2ccccc2c1=O,10.1
9,Cc1c(C(=O)N[C@@H](Cc2ccccc2)C(=O)C(=O)NCc2ccccc2)oc2ccccc2c1=O,8.1
10,Cc1c(C(=O)N[C@@H](Cc2ccccc2)C(=O)C(=O)NCCN2CCOCC2)oc2cc3c(cc2c1=O)OCCO3,0
11,CCc1c(C(=O)N[C@@H](Cc2ccccc2)C(=O)C(N)=O)oc2ccccc2c1=O,31.9
12,Cc1c(C(=O)N[C@@H](Cc2ccccc2)C(=O)C(N)=O)oc2cc3c(cc2c1=O)OCCO3,32.5
13,Cc1c(C(=O)N[C@@H](Cc2ccccc2)C(=O)C(=O)NC(C)C)oc2cc3c(cc2c1=O)OCCO3,1.7
